Key:
PERK kinase = PERK kinase (Homo sapiens (Human), UniProt Q9NZJ5); assay: Biochemical assay for PERK (coupled pyruvate kinase/lactate dehydrogenase assay); conditions: 1 mM ATP, rate from 2-3 h time frame
Experimental: Activity of PERK kinase was determined spectroscopically using a coupled pyruvate kinase/lactate dehydrogenase assay that continuously monitors the ATP hydrolysis-dependent oxidation of NADH (e.g., Schindler et al. Science (2000) 289: 1938-1942). Assays were conducted in 384-well plates (100 μL final volume) using 10 nM PERK (from Beryllium), 0.25 mg/mL Myelin Basic Protein substrate, 1.5 units pyruvate kinase, 2.1 units lactate dehydrogenase, 1 mM phosphoenol pyruvate, 0.28 mM NADH and 1 mM ATP in assay buffer (100 mM Tris, pH 7.5, 15 mM MgCl2, 0.5 mM DTT, 0.004% (w/v) BSA, and 0.004% Triton X-100). Inhibition of PERK was measured by adding serial diluted test compound (final assay concentration of 1% DMSO). A decrease in absorption at 340 nm was monitored continuously for 6 hours at 30° C. on a multi-mode microplate reader (BioTek). The reaction rate was calculated using the 2-3 h time frame. The reaction rate at each concentration of compound was converted to percent inhibition using controls (i.e. reaction with no test compound and reaction with a known inhibitor) and IC50 values were calculated using software routines in Prism (GraphPad software).

GCN2 kinase = GCN2 kinase (Homo sapiens (Human), UniProt Q9P2K8); assay: Biochemical assay for GCN2 (TR-FRET kinase activity assay); conditions: 1 mM ATP, 3-hour incubation
GCN2 kinase, sequence (Q9P2K8 whole entry): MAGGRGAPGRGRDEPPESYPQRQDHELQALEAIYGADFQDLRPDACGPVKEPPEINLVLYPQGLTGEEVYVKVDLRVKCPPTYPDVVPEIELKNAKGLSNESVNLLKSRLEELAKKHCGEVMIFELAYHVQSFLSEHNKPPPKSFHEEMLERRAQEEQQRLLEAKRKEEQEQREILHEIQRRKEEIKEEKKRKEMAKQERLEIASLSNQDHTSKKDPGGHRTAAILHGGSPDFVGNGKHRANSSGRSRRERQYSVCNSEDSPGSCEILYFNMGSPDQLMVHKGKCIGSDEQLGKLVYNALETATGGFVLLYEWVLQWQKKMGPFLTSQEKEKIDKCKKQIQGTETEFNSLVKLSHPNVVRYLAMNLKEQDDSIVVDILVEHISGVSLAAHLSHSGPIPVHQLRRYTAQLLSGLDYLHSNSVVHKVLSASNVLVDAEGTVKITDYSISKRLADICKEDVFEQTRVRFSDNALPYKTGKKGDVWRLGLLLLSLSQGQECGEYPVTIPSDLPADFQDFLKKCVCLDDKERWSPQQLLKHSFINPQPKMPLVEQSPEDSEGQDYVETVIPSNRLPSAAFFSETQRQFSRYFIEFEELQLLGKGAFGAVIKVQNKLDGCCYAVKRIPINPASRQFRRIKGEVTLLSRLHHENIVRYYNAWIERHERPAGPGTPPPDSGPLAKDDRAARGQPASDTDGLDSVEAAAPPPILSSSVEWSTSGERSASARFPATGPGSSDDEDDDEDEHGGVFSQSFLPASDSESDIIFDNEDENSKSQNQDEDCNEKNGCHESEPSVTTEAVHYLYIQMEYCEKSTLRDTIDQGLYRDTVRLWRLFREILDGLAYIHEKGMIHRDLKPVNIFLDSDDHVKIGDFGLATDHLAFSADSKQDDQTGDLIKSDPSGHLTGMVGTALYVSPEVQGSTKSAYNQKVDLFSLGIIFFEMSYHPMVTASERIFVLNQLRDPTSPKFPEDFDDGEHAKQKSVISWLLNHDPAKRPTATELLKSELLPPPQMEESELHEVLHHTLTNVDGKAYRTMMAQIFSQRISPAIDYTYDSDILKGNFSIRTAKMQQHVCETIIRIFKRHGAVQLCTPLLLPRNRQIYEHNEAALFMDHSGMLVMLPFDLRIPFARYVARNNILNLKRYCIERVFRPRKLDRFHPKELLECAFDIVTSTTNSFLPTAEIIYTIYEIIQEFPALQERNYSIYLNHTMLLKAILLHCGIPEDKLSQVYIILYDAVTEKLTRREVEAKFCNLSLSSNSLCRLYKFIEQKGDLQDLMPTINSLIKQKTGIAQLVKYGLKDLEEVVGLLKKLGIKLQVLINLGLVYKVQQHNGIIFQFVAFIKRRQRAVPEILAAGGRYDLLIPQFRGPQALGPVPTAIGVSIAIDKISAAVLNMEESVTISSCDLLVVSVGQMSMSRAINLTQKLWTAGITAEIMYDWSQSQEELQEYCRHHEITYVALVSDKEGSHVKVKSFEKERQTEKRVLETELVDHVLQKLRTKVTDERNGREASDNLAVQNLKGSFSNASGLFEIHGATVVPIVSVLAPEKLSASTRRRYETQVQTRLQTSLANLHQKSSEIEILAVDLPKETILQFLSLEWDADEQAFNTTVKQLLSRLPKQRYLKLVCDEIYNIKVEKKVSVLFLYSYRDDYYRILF
Experimental: Activity of GCN2 kinase was determined using a TR-FRET kinase activity assay (e.g. Riddle et al. Analytical Biochemistry (2006) 356(1) 108-116). Assays were conducted in 384-well plates (13 μL assay volume) using 2 nM GCN2 (Carna Biosciences), 130 nM GFP-EIf2α (Invitrogen), 0.2 mg/mL E. coli tRNA (sigma) and 1 mM ATP in kinase buffer (Invitrogen). Inhibition of GCN2 was measured by adding serial diluted test compound (final assay concentration of 0.5% DMSO) followed by a 3-hour incubation. Tb-peIF2α (pSer52) antibody (Invitrogen) (2 nM final assay concentration) in kinase buffer containing ETDA (final assay concentration of 20 mM) was added. After a 60 min incubation at room temperature, TR-FRET was monitored using an excitation wavelength of 340 nm and emission wavelengths of 490 nm and 520 nm. The emission ratio (520/490) at each compound concentration of was converted to percent inhibition using controls (i.e. reaction with no test compound and reaction with a known inhibitor) and IC50 values were calculated by fitting a four-parameter sigmoidal curve to the data using Prism (GraphPad software).

PERK kinase, sequence (Q9NZJ5 other isoform, or with tags, fused parts or gaps): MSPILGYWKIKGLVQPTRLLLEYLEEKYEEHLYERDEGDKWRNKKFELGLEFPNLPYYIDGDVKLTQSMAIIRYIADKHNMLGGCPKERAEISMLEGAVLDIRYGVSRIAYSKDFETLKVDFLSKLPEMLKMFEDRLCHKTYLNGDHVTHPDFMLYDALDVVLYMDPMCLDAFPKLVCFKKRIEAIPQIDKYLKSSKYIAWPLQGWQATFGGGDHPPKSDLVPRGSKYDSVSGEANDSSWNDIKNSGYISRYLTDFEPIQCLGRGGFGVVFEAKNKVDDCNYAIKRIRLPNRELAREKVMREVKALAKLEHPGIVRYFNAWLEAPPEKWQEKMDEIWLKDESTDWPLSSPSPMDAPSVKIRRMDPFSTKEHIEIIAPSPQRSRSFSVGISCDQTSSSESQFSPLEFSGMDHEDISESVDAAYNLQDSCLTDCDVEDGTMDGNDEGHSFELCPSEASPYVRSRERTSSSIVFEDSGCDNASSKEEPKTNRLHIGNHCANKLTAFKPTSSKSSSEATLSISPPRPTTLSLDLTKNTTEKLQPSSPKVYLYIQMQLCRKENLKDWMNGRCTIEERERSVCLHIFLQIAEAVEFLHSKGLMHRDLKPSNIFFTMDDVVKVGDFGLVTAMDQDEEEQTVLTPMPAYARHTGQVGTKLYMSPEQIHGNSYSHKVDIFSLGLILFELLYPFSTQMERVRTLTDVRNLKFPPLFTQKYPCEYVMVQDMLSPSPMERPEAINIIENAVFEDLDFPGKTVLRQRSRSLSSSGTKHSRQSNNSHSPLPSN

SMILES | IC50 (PERK kinase) [nM] | IC50 (GCN2 kinase) [nM]
CNc1ncc2cc(-c3cccc(NS(=O)(=O)c4cc(C(C)=O)ccc4Cl)c3F)c(NC)nc2n1 [Example 133] | 100 to 500 | 100 to 500
CNc1ncc2cc(-c3cccc(NS(=O)(=O)c4cc(F)cnc4OC)c3F)c(NC)nc2n1 [Example 122] | 100 to 500 | ≤ 100
CNc1ncc2cc(-c3ccc(F)c(NS(=O)(=O)c4cc(Cl)cnc4OC)c3F)c(C)nc2n1 [Example 46] | 1000 to 10000 | 100 to 500
CNc1ncc2cc(-c3cc(NS(=O)(=O)c4cc(Cl)cnc4OC)c(F)cc3F)c(NC)nc2n1 [Example 13] | 1000 to 10000 | 500 to 1000
CNc1ncc2cc(-c3cccc(NS(=O)(=O)c4ccc(OC)c(C)c4)c3F)ccc2n1 [Example 91] | 100 to 500 | 1000 to 10000
CNc1ncc2cc(-c3cc(NS(=O)(=O)c4cc(Cl)cnc4OC)cc(F)c3F)ccc2n1 [Example 55] | 100 to 500 | 500 to 1000
CNc1ncc2cc(-c3cc(NS(=O)(=O)c4cc(Cl)cnc4OC)c(F)cc3F)c(C)nc2n1 [Example 12] | 1000 to 10000 | 500 to 1000
CNc1ncc2cc(-c3cccc(NS(=O)(=O)c4cc(Cl)cnc4OC)c3)ccc2n1 [Example 43] | 1000 to 10000 | 1000 to 10000
CNc1ncc2cc(-c3cc(NS(=O)(=O)c4cc(Cl)cnc4OC)ccc3C(F)(F)F)c(C)nc2n1 [Example 80] | 1000 to 10000 | 500 to 1000
CNc1ncc2cc(-c3c(F)ccc(NS(=O)(=O)c4cc(Cl)cnc4OC)c3F)c(NC)nc2n1 [Example 73] | 100 to 500 | 100 to 500
CNc1ncc2cc(-c3cc(F)cc(NS(=O)(=O)c4cc(Cl)cnc4OC)c3)c(NC[C@H](C)OC)nc2n1 [Example 108] | 1000 to 10000 | 500 to 1000
CNc1ncc2cc(-c3cccc(NS(=O)(=O)c4ccc(C#N)cc4Cl)c3F)c(NC)nc2n1 [Example 141] |  | 1000 to 10000
CNc1ncc2cc(-c3cccc(NS(=O)(=O)c4cccnc4OC)c3F)c(NC)nc2n1 [Example 156] | 500 to 1000 | 100 to 500
CNc1nc2nc(NC(C)(C)C)ncc2cc1-c1cccc(NS(=O)(=O)c2cc(Cl)cnc2OC)c1F [Example 124] |  | 100 to 500
CNc1ncc2cc(-c3cc(NS(=O)(=O)c4cc(Cl)cnc4OC)ccn3)ccc2n1 [Example 163] | 1000 to 10000 | 1000 to 10000
CNc1cc2ncc(-c3cc(NS(=O)(=O)c4cc(Cl)cnc4OC)ccc3F)cc2cn1 [Example 60] | 500 to 1000 | 100 to 500
CNc1cc2nc(C)c(-c3ccc(F)c(NS(=O)(=O)c4cc(Cl)cnc4OC)c3)cc2cn1 [Example 7] | 100 to 500 | 500 to 1000
CNc1ncc2cc(-c3cccc(NS(=O)(=O)c4ccc(Br)c(C(F)(F)F)c4)c3F)ccc2n1 [Example 71] | 1000 to 10000 | 1000 to 10000
CNc1ncc2cc(-c3ccnc(NS(=O)(=O)c4cc(Cl)cnc4OC)c3F)c(NC)nc2n1 [Example 144] | 100 to 500 | 100 to 500
CNc1ncc2cc(-c3cccc(NS(=O)(=O)c4cc(C5CC5)cnc4OC)c3F)c(NC)nc2n1 [Example 153] | 100 to 500 | ≤ 100
CNc1ncc2cc(-c3cccc(NS(=O)(=O)c4ccc(Cl)nc4OC)c3F)c(NC)nc2n1 [Example 142] | 100 to 500 | 100 to 500
CNc1ncc2cc(-c3cccc(NS(=O)(=O)c4ccc(OC)c(Cl)c4)c3F)ccc2n1 [Example 70] | 100 to 500 | 1000 to 10000
CNc1ncc2cc(-c3cccc(NS(=O)(=O)c4cc(Cl)c(C)cc4OC)c3F)c(NC)nc2n1 [Example 157] |  | ≤ 100
CNc1nc2nc(NC3COC3)ncc2cc1-c1cccc(NS(=O)(=O)c2cc(Cl)cnc2OC)c1F [Example 138] |  | 100 to 500
CNc1ncc2cc(-c3cc(F)cc(NS(=O)(=O)c4cc(Cl)cnc4OC)c3)c(NCCOC)nc2n1 [Example 105] | 1000 to 10000 | 100 to 500

SMILES | IC50 (PERK kinase) [nM] | IC50 (GCN2 kinase) [nM]
CNc1nc2nc(N)ncc2cc1-c1ccnc(NS(=O)(=O)c2cc(Cl)cnc2OC)c1F [Example 155] | 100 to 500 | 100 to 500
CNc1ncc2cc(-c3cccc(NS(=O)(=O)c4cc(Cl)c[nH]c4=O)c3F)c(NC)nc2n1 [Example 160] | 1000 to 10000 | 500 to 1000
CNc1ncc2cc(-c3cccc(NS(=O)(=O)c4cc(Cl)cnc4OC)c3F)c(NCC3COC3)nc2n1 [Example 99] | 100 to 500 | 100 to 500
CNc1ncc2cc(-c3cc(NS(=O)(=O)c4cc(Cl)cnc4OC)ccc3C)c(NC)nc2n1 [Example 24] | 100 to 500 | 100 to 500
CNc1nc2nc(NCC3COC3)ncc2cc1-c1cccc(NS(=O)(=O)c2cc(Cl)cnc2OC)c1F [Example 149] |  | 500 to 1000
COc1cc(OC)c(S(=O)(=O)Nc2cccc(-c3cc4cnc(N)nc4nc3OC)c2F)cc1Cl [Example 126] | 500 to 1000 | 1000 to 10000
CNc1ncc2cc(-c3cccc(NS(=O)(=O)c4cc(Cl)cnc4OC)c3C)ccc2n1 [Example 52] | 100 to 500 | 100 to 500
CNc1ncc2cc(-c3cc(F)cc(NS(=O)(=O)c4cc(Cl)cc(C(C)(C)O)c4Cl)c3)c(NC)nc2n1 [Example 120] |  | 1000 to 10000
COc1ncc(Cl)cc1S(=O)(=O)Nc1cccc(-c2ccc3cc(N)ncc3c2)c1F [Example 29] | ≤ 100 | 100 to 500
CNc1ncc2cc(-c3cccc(NS(=O)(=O)c4cc(Cl)cnc4OC)c3)c(C)nc2n1 [Example 47] | 100 to 500 | ≤ 100
CNc1nc2nc(NCC(F)(F)F)ncc2cc1-c1cccc(NS(=O)(=O)c2cc(Cl)cnc2OC)c1F [Example 116] | 100 to 500 | ≤ 100
CNc1ncc2cc(-c3cc(NS(=O)(=O)c4cc(Cl)cnc4OC)ccc3OC)c(C)nc2n1 [Example 82] | 1000 to 10000 | 1000 to 10000
CNc1ncc2cc(-c3cc(NS(=O)(=O)c4cc(Cl)cnc4OC)ccc3F)ccc2n1 [Example 54] | 100 to 500 | 500 to 1000
CNc1ncc2cc(-c3cccc(NS(=O)(=O)c4cc(Cl)cnc4OC)c3F)c(OCCOC)nc2n1 [Example 147] | 100 to 500 | ≤ 100
CNc1ncc2cc(-c3cccc(NS(=O)(=O)c4cc(OC)c(Cl)cc4OC)c3F)c(NC)nc2n1 [Example 130] |  | 500 to 1000
CNc1nc2nc(NCCOC)ncc2cc1-c1cccc(NS(=O)(=O)c2cc(Cl)cnc2OC)c1F [Example 139] |  | 100 to 500
CNc1ncc2cc(-c3cccc(NS(=O)(=O)c4cc(C(C)(C)C)ccc4OC)c3F)c(NC)nc2n1 [Example 134] |  | 1000 to 10000
CNc1ncc2cc(-c3cccc(NS(=O)(=O)c4cc(C#N)cnc4OC)c3F)c(NC)nc2n1 [Example 152] |  | 100 to 500
CNc1nc2nc(NC(=O)C3CC3)ncc2cc1-c1cccc(NS(=O)(=O)c2cc(Cl)cnc2OC)c1F [Example 172] |  | 100 to 500
CNc1ncc2cc(-c3cccc(NS(=O)(=O)c4cccc(C(C)=O)c4Cl)c3F)c(NC)nc2n1 [Example 146] |  | 100 to 500
CNc1ncc2cc(-c3cccc(NS(=O)(=O)c4cccnc4C(F)(F)F)c3F)c(NC)nc2n1 [Example 131] |  | 100 to 500
CNc1ncc2cc(-c3cccc(NS(=O)(=O)c4cc(OC)ccc4OC)c3F)c(NC)nc2n1 [Example 140] |  | 100 to 500
CNc1ncc2cc(-c3cc(F)cc(NS(=O)(=O)c4cc(Cl)cnc4OC)c3)ccc2n1 [Example 37] |  | 1000 to 10000
CNc1ncc2cc(-c3cccc(NS(=O)(=O)c4cccc(C(=O)OC)c4Cl)c3F)c(NC)nc2n1 [Example 150] |  | 500 to 1000

Reference: patent US11912668B2, “GCN2 and perk kinase inhibitors and methods of use thereof” (Deciphera Pharmaceuticals, LLC, priority 2020, dated 2024)
